In patent publication US10906915B2, “Substituted pyrazoloazepin-4-ones and their use as phosphodiesterase inhibitors” (LEO Pharma A/S, priority 2016, dated 2021):

The molecules below were run against human PDE4D catalytic domain (UniProt no. Q08499) (Homo sapiens (Human), UniProt Q08499) (assay: PDE4 assay (TR-FRET, FAM-cAMP cleavage)). Conditions: human PDE4D catalytic domain; molar concentration giving 50% inhibition of substrate cleavage; read-out: PDE4 IC50 range.
Assay type: biochemical
Method: The human PDE4D catalytic domain (UniProt no. Q08499 [[…]]) was incubated with a mixture of non-labelled cAMP (cyclic adenosine monophosphate) and fluorescein amidite (FAM) conjugated cAMP and titrated test or reference compound. Following brief incubation the enzymatic reaction was stopped by addition of binding buffer containing nanoparticles with immobilized trivalent metal ions capable of binding 1) AMP phospho groups and 2) terbium (Tb) donor fluorophores. Subsequent excitation of the Tb donor triggers time-resolved FRET to adjacent FAM acceptor molecules resulting in light emission. In the presence of a PDE4 inhibitor, AMP generation was reduced resulting in a lower fluorescence signal. The cAMP phosphodiester is not bound by the detection system.
The results were calculated as the molar concentrations resulting in 50% inhibition of the substrate cleavage compared to controls samples, and are expressed as a range of IC50 (nM).

Chain of human PDE4D catalytic domain (Q08499 380-740 limits assumed): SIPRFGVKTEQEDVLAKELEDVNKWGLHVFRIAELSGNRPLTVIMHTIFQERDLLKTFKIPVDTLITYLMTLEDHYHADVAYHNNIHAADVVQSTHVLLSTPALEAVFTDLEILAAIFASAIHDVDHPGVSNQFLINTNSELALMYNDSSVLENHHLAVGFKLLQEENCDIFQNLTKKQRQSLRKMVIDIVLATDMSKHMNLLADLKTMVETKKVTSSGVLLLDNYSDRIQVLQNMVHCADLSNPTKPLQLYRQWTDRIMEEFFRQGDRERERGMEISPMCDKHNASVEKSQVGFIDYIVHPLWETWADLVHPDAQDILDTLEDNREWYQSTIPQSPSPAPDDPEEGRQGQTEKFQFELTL

Row | SMILES | IC50 [nM]
1 | CCc1nn(CCCOC(=O)c2ccc(C)cc2)c2c1C(=O)NCC1(CCOCC1)C2 [Example 1, 3-(3-Ethyl-4-oxo-spiro[6,8-dihydro-5H-pyrazolo[4,3-c]azepine-7,4′-tetrahydropyran]-1-yl)propyl 4-methylbenzoate] | < 100
2 | CCc1ccc(C(=O)OCCCn2nc(CC)c3c2CC2(CCOCC2)CNC3=O)cc1 [Example 2, 3-(3-Ethyl-4-oxo-spiro[6,8-dihydro-5H-pyrazolo[4,3-c]azepine-7,4′-tetrahydropyran]-1-yl)propyl 4-ethylbenzoate] | < 100
3 | CCc1nn(C[C@@H](C)COC(=O)c2ccc(S(=O)(=O)NC)cc2)c2c1C(=O)NCC1(CCOCC1)C2 [Example 3, [(2R)-3-(3-Ethyl-4-oxo-spiro[6,8-dihydro-5H-pyrazolo[4,3-c]azepine-7,4′-tetrahydro-pyran]-1-yl)-2-methyl-propyl] 4-(methylsulfamoyl)benzoate] | < 100
4 | CCc1nn(C[C@@H](C)COC(=O)c2ccc(S(=O)(=O)N(C)C)cc2)c2c1C(=O)NCC1(CCOCC1)C2 [Example 4, [(2R)-3-(3-Ethyl-4-oxo-spiro[6,8-dihydro-5H-pyrazolo[4,3-c]azepine-7,4′-tetrahydro-pyran]-1-yl)-2-methyl-propyl] 4-(dimethylsulfamoyl)benzoate] | < 100
5 | CCc1nn(C[C@@H](C)COC(=O)c2ccc(S(C)(=O)=O)cc2)c2c1C(=O)NCC1(CCOCC1)C2 [Example 5, [(2R)-3-(3-ethyl-4-oxo-spiro[6,8-dihydro-5H-pyrazolo[4,3-c]azepine-7,4′-tetrahydro-pyran]-1-yl)-2-methyl-propyl] 4-methylsulfonylbenzoate] | < 100
6 | CCc1nn(CCCOC(C)=O)c2c1C(=O)NCC1(CCOCC1)C2 [Example 6, 3-(3-ethyl-4-oxo-spiro[6,8-dihydro-5H-pyrazolo[4,3-c]azepine-7,4′-tetrahydropyran]-1-yl)propyl acetate] | 100 to 500
7 | CCc1nn(CCCOC(=O)C(C)C)c2c1C(=O)NCC1(CCOCC1)C2 [Example 7, 3-(3-ethyl-4-oxo-spiro[6,8-dihydro-5H-pyrazolo[4,3-c]azepine-7,4′-tetrahydropyran]-1-yl)propyl 2-methylpropanoate] | 100 to 500
8 | CCc1nn(CCCOC(=O)CCOC)c2c1C(=O)NCC1(CCOCC1)C2 [Example 8, 3-(3-ethyl-4-oxo-spiro[6,8-dihydro-5H-pyrazolo[4,3-c]azepine-7,4′-tetrahydropyran]-1-yl)propyl 3-methoxypropanoate] | > 500
9 | CCc1nn(CCCOC(=O)C2CCCC2)c2c1C(=O)NCC1(CCOCC1)C2 [Example 9, 3-(3-ethyl-4-oxo-spiro[6,8-dihydro-5H-pyrazolo[4,3-c]azepine-7,4′-tetrahydropyran]-1-yl)propyl cyclopentanecarboxylate] | < 100
10 | CCc1nn(CCCOC(=O)C2CC(O)C2)c2c1C(=O)NCC1(CCOCC1)C2 (stereo not shown) [Example 10, 3-(3-ethyl-4-oxo-spiro[6,8-dihydro-5H-pyrazolo[4,3-c]azepine-7,4′-tetrahydropyran]-1-yl)propyl 3-hydroxycyclobutane-carboxylate] | 100 to 500
11 | CCc1nn(CCCOC(=O)C(CC)CC)c2c1C(=O)NCC1(CCOCC1)C2 [Example 11, 3-(3-ethyl-4-oxo-spiro[6,8-dihydro-5H-pyrazolo[4,3-c]azepine-7,4′-tetrahydropyran]-1-yl)propyl 2-ethylbutanoate] | < 100
12 | CCc1nn(CCCOC(=O)COC(C)C)c2c1C(=O)NCC1(CCOCC1)C2 [Example 12, 3-(3-ethyl-4-oxo-spiro[6,8-dihydro-5H-pyrazolo[4,3-c]azepine-7,4′-tetrahydropyran]-1-yl)propyl 2-isopropoxyacetate] | > 500
13 | CCc1nn(CCCOC(=O)CCSC)c2c1C(=O)NCC1(CCOCC1)C2 [Example 13, 3-(3-ethyl-4-oxo-spiro[6,8-dihydro-5H-pyrazolo[4,3-c]azepine-7,4′-tetrahydropyran]-l-yl)propyl 3-methylsulfanylpropanoate] | 100 to 500
14 | CCc1nn(CCCOC(=O)C2CC(F)(F)C2)c2c1C(=O)NCC1(CCOCC1)C2 [Example 14, 3-(3-ethyl-4-oxo-spiro[6,8-dihydro-5H-pyrazolo[4,3-c]azepine-7,4’-tetrahydropyran]-1-yl)propyl 3,3-difluorocyclobutane-carboxylate] | 100 to 500
15 | CCc1nn(CCCOC(=O)c2cccc(C)c2)c2c1C(=O)NCC1(CCOCC1)C2 [Example 15, 3-(3-ethyl-4-oxo-spiro[6,8-dihydro-5H-pyrazolo[4,3-c]azepine-7,4′-tetrahydropyran]-1-yl)propyl 3-methylbenzoate] | < 100
16 | CCc1nn(CCCOC(=O)c2ccccc2C)c2c1C(=O)NCC1(CCOCC1)C2 [Example 16, 3-(3-ethyl-4-oxo-spiro[6,8-dihydro-5H-pyrazolo[4,3-c]azepine-7,4′-tetrahydropyran]-1-yl)propyl 2-methylbenzoate] | < 100

Row | SMILES | IC50 [nM]
17 | CCc1nn(CCCOC(=O)c2ccccc2O)c2c1C(=O)NCC1(CCOCC1)C2 [Example 17, 3-(3-ethyl-4-oxo-spiro[6,8-dihydro-5H-pyrazolo[4,3-c]azepine-7,4′-tetrahydropyran]-1-yl)propyl 2-hydroxybenzoate] | < 100
18 | CCc1nn(CCCOC(=O)c2cccc(F)c2)c2c1C(=O)NCC1(CCOCC1)C2 [Example 18, 3-(3-ethyl-4-oxo-spiro[6,8-dihydro-5H-pyrazolo[4,3-c]azepine-7,4′-tetrahydropyran]-1-yl)propyl 3-fluorobenzoate] | < 100
19 | CCc1nn(CCCOC(=O)c2ccccc2F)c2c1C(=O)NCC1(CCOCC1)C2 [Example 19, 3-(3-ethyl-4-oxo-spiro[6,8-dihydro-5H-pyrazolo[4,3-c]azepine-7,4′-tetrahydropyran]-1-yl)propyl 2-fluorobenzoate] | < 100
20 | CCc1nn(CCCOC(=O)c2ccc(F)cc2)c2c1C(=O)NCC1(CCOCC1)C2 [Example 20, 3-(3-ethyl-4-oxo-spiro[6,8-dihydro-5H-pyrazolo[4,3-c]azepine-7,4′-tetrahydropyran]-1-yl)propyl 4-fluorobenzoate] | < 100
21 | CCc1nn(CCCOC(=O)[C@H]2CC[C@@H](O)CC2)c2c1C(=O)NCC1(CCOCC1)C2 [Example 21, 3-(3-ethyl-4-oxo-spiro[6,8-dihydro-5H-pyrazolo[4,3-c]azepine-7,4′-tetrahydropyran]-1-yl)propyl cis-4-hydroxycyclohexane-carboxylate] | 100 to 500
22 | CCc1nn(CCCOC(=O)[C@H]2CC[C@H](O)CC2)c2c1C(=O)NCC1(CCOCC1)C2 [Example 22, 3-(3-ethyl-4-oxo-spiro[6,8-dihydro-5H-pyrazolo[4,3-c]azepine-7,4′-tetrahydropyran]-1-yl)propyl trans-4-hydroxycyclohexane-carboxylate] | 100 to 500
23 | CCc1nn(CCCOC(=O)c2cccc(C#N)c2)c2c1C(=O)NCC1(CCOCC1)C2 [Example 23, 3-(3-ethyl-4-oxo-spiro[6,8-dihydro-5H-pyrazolo[4,3-c]azepine-7,4′-tetrahydropyran]-1-yl)propyl 3-cyanobenzoate] | < 100
24 | CCc1nn(CCCOC(=O)c2ccc(C#N)cc2)c2c1C(=O)NCC1(CCOCC1)C2 [Example 24, 3-(3-ethyl-4-oxo-spiro[6,8-dihydro-5H-pyrazolo[4,3-c]azepine-7,4′-tetrahydropyran]-1-yl)propyl 4-cyanobenzoate] | < 100
25 | CCc1nn(CCCOC(=O)c2ccccc2C#N)c2c1C(=O)NCC1(CCOCC1)C2 [Example 25, 3-(3-ethyl-4-oxo-spiro[6,8-dihydro-5H-pyrazolo[4,3-c]azepine-7,4′-tetrahydropyran]-1-yl)propyl 2-cyanobenzoate] | < 100
26 | CCc1nn(CCCOC(=O)c2ccc(C)c(C)c2)c2c1C(=O)NCC1(CCOCC1)C2 [Example 26, 3-(3-ethyl-4-oxo-spiro[6,8-dihydro-5H-pyrazolo[4,3-c]azepine-7,4′-tetrahydropyran]-1-yl)propyl 3,4-dimethylbenzoate] | < 100
27 | CCc1nn(CCCOC(=O)c2ccc(C)cc2C)c2c1C(=O)NCC1(CCOCC1)C2 [Example 27, 3-(3-ethyl-4-oxo-spiro[6,8-dihydro-5H-pyrazolo[4,3-c]azepine-7,4′-tetrahydropyran]-1-yl)propyl 2,4-dimethylbenzoate] | < 100
28 | CCc1nn(CCCOC(=O)c2ccc(OC)cc2)c2c1C(=O)NCC1(CCOCC1)C2 [Example 28, 3-(3-ethyl-4-oxo-spiro[6,8-dihydro-5H-pyrazolo[4,3-c]azepine-7,4′-tetrahydropyran]-1-yl)propyl 4-methoxybenzoate] | < 100
29 | CCc1nn(CCCOC(=O)c2cccc(OC)c2)c2c1C(=O)NCC1(CCOCC1)C2 [Example 29, 3-(3-ethyl-4-oxo-spiro[6,8-dihydro-5H-pyrazolo[4,3-c]azepine-7,4′-tetrahydropyran]-1-yl)propyl 3-methoxybenzoate] | < 100
30 | CCc1nn(CCCOC(=O)c2ccccc2OC)c2c1C(=O)NCC1(CCOCC1)C2 [Example 30, 3-(3-ethyl-4-oxo-spiro[6,8-dihydro-5H-pyrazolo[4,3-c]azepine-7,4′-tetrahydropyran]-1-yl)propyl 2-methoxybenzoate] | < 100
31 | CCc1nn(CCCOC(=O)CCS(C)(=O)=O)c2c1C(=O)NCC1(CCOCC1)C2 [Example 31, 3-(3-ethyl-4-oxo-spiro[6,8-dihydro-5H-pyrazolo[4,3-c]azepine-7,4′-tetrahydropyran]-1-yl)propyl 3-methylsulfonylpropanoate] | > 500
